According to patent US20210221866A1, “PROTEASE-RESISTANT LIPIDATED GLP-1 ANALOGS” (MEDIMMUNE LIMITED, priority 2015, published 2021):
Read-outs that look alike come from different tables or passages of the source. Numbered stars: 1 amine (or outer) side, 2 acyl side, 3 side chain; on linkers, the order of the positions; unused ones are H or OH. Square brackets hold non-standard residues; d marks the D form. Side chains are listed from the residue outwards. Peptide text beside a SMILES is read from it. * marks the point of attachment. C18 diacid = O=C(O)CCCCCCCCCCCCCCCCC(=O)*; γGlu = O=C(O)[C@H](CCC(=O)[*:2])N[*:1]; αMeF = C[C@](N)(Cc1ccccc1)C(=O)O; αMeK = C[C@](N)(CCCCN)C(=O)O; αMeS = C[C@](N)(CO)C(=O)O; AEEA = NCCOCCOCC(=O)O; Aib = CC(C)(N)C(=O)O

Tests used:
Format in all cases: cell-based
[1] = target: T1, human GLP-1 receptor (GLP-1R) (Homo sapiens, UniProt P43220); assay: cAMP assay, human GLP-1R cells
T1 construct: expressed in transfected cells; host or cells: HEK293 cells or CHO cells
T1 sequence (P43220 24-463): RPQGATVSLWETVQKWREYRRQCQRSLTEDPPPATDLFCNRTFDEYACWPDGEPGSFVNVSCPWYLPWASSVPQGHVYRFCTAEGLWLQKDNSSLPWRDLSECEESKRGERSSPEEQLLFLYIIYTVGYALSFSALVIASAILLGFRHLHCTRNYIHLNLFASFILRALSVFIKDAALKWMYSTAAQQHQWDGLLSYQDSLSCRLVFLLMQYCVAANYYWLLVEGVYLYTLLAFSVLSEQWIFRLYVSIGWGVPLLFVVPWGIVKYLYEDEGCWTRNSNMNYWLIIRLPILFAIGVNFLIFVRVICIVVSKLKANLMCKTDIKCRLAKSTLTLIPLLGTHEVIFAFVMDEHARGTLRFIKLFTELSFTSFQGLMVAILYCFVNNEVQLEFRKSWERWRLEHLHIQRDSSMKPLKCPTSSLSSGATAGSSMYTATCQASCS
In short: (§1)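 Peptide-stimulated cAMP measured by two-step HTRF after a 30 min room-temperature incubation with receptor-expressing cells (hGLP-1R, hGIPR at 1×10^5 cells/ml; hGCGR at 2×10^5 cells/ml). Duplicate dilutions; EC50 from 4-parameter logistic fit of % Delta F.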

[2] = target: T2, human glucagon receptor (GCGR) (Homo sapiens, UniProt P47871); assay: cAMP assay, human GCGR cells; conditions: read-out: Primary assay EC50 Gluc-R
T2 construct: expressed in transfected cells; host or cells: HEK293 cells or CHO cells
T2 sequence (P47871 26-477): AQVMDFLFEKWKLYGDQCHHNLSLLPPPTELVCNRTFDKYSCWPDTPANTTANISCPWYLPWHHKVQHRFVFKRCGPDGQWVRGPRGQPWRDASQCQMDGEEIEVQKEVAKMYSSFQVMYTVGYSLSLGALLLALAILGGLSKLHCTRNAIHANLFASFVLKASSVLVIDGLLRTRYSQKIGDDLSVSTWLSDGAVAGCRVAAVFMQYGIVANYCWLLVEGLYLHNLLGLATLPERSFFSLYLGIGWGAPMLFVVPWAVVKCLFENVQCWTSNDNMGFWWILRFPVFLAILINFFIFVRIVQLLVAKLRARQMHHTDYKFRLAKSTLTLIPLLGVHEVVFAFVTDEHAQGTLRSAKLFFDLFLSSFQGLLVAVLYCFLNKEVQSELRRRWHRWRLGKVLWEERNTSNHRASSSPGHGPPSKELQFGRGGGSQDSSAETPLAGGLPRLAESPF
In short: as §1

[3] = target: T3, human glucose-dependent insulinotropic peptide receptor (GIPR) (Homo sapiens, UniProt P48546); assay: cAMP assay, human GIPR cells; conditions: read-out: Primary assay EC50 GIP-R
T3 construct: expressed in transfected cells; host or cells: HEK293 cells or CHO cells
T3 sequence (P48546 22-466): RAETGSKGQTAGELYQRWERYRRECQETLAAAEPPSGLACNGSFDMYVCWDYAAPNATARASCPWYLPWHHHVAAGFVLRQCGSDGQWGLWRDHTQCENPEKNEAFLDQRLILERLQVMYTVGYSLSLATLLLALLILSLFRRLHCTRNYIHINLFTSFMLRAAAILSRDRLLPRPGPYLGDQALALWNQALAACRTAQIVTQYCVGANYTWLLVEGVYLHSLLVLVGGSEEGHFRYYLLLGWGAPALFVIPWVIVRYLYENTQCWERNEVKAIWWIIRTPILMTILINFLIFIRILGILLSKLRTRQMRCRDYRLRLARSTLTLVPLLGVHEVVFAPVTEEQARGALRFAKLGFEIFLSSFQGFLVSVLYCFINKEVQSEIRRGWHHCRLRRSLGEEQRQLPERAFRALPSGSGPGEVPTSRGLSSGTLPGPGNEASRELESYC
In short: as §1

GLP-1R (INS1e cells) = target: T4, GLP-1R (INS1e cells) (Rattus norvegicus, UniProt P32301); assay: INS1e assay, cAMP activity at GLP-1R; conditions: Table 8, substituted and mono-lipidated peptides
T4 construct: endogenous in cells; host or cells: INS1e cells
T4 sequence (P32301 22-463): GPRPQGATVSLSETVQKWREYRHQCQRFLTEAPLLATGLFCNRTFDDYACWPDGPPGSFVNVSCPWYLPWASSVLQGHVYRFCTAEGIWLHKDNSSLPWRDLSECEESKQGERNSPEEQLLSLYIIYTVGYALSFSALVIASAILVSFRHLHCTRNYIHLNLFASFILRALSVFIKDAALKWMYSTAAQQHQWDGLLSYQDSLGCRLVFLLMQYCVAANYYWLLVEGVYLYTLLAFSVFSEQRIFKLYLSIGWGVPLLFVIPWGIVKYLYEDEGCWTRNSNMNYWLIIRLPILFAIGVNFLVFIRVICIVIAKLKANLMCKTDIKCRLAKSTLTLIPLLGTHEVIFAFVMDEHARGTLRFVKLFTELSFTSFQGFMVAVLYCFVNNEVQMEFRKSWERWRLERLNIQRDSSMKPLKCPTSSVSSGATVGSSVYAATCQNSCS

[4] = cAMP activity, first determination (n1), read-out: Primary assay EC50 GLP-1R n1
[5] = cAMP activity, mean of n1 and n2, read-out: Mean pM GLP-1R
[6] = cAMP activity, second determination (n2), read-out: Primary assay EC50 GLP-1R n2
[7] = cAMP activity, second determination (n2)
[8] = cAMP activity, first determination (n1)
[9] = mean of n1 and n2, read-out: INS1e assay EC50 Mean pM GLP-1R
[10] = replicate n1, read-out: INS1e assay EC50 GLP-1R n1
[11] = replicate n2, read-out: INS1e assay EC50 GLP-1R n2

| EC50 [1, 4] [pM] | EC50 [1, 5] [pM] | EC50 [1, 6] [pM] | EC50 [2, 7] [nM] | EC50 [3, 8] [nM] | EC50 [3, 7] [nM] | EC50 (GLP-1R (INS1e cells); [9]) [pM] | EC50 (GLP-1R (INS1e cells); [10]) [pM] | EC50 (GLP-1R (INS1e cells); [11]) [pM] | EC50 ([1]; mean of n1 and n2, read-out: Mean pM GLP-1R) [pM] | EC50 ([1]; replicate n1, read-out: Primary assay EC50 GLP-1R n1) [pM] | EC50 ([1]; replicate n2, read-out: Primary assay EC50 GLP-1R n2) [pM] | EC50 ([2]; second replicate (n2)) [nM] | EC50 ([3]; first replicate) [nM] | EC50 ([3]; second replicate (n2)) [nM] | SMILES |
| --- | --- | --- | --- | --- | --- | --- | --- | --- | --- | --- | --- | --- | --- | --- | --- |
| 4.7 | 5 | 4.56 | ≥ 25.2 | ≥ 25 | ≥ 25.2 | 509 | 428 | 590 | – | – | – | – | – | – | CC[C@H](C)[C@H](NC(=O)[C@](C)(Cc1ccccc1)NC(=O)[C@H](CCC(=O)O)NC(=O)[C@](C)(CCCCN)NC(=O)[C@H](C)NC(=O)[C@H](C)NC(=O)[C@H](CCC(=O)O)NC(=O)CNC(=O)[C@H](CCC(=O)O)NC(=O)[C@H](CC(C)C)NC(=O)[C@](C)(Cc1ccccc1)NC(=O)[C@H](CO)NC(=O)[C@](C)(CO)NC(=O)[C@@H](NC(=O)[C@H](CC(=O)O)NC(=O)[C@H](CO)NC(=O)[C@@H](NC(=O)[C@](C)(Cc1ccccc1)NC(=O)[C@H](CO)NC(=O)CNC(=O)[C@H](CCC(=O)O)NC(=O)C(C)(C)NC(=O)[C@@H](N)Cc1c[nH]cn1)[C@@H](C)O)C(C)C)C(=O)N[C@@H](C)C(=O)N[C@@](C)(Cc1ccccc1)C(=O)N[C@@H](CCCCNC(=O)COCCOCCNC(=O)COCCOCCNC(=O)CC[C@H](NC(=O)CCCCCCCCCCCCCCCCC(=O)O)C(=O)O)C(=O)N[C@H](C(=O)N[C@@](C)(CCCCN)C(=O)NCC(=O)NCC(N)=O)C(C)C [compound 103] (H-H[Aib]EGS[αMeF]TSDV[αMeS]S[αMeF]LEGEAA[αMeK]E[αMeF]IA[αMeF]K([AEEA-AEEA-γGlu-C18 diacid])V[αMeK]GG-NH2) |
| 21 | 18 | 14.8 | ≥ 25 | ≥ 25 | ≥ 25 | 970 | 220 | 1720 | – | – | – | – | – | – | CC[C@H](C)[C@H](NC(=O)[C@](C)(Cc1ccccc1)NC(=O)[C@H](CCC(=O)O)NC(=O)[C@](C)(CCCCN)NC(=O)[C@H](C)NC(=O)[C@H](C)NC(=O)[C@H](CCC(=O)O)NC(=O)CNC(=O)[C@H](CCC(=O)O)NC(=O)[C@H](CC(C)C)NC(=O)[C@](C)(Cc1ccccc1)NC(=O)[C@H](CO)NC(=O)[C@](C)(CO)NC(=O)[C@@H](NC(=O)[C@H](CC(=O)O)NC(=O)[C@H](CO)NC(=O)[C@@H](NC(=O)[C@](C)(Cc1ccccc1)NC(=O)[C@H](CO)NC(=O)CNC(=O)[C@H](CCC(=O)O)NC(=O)C(C)(C)NC(=O)[C@@H](N)Cc1c[nH]cn1)[C@@H](C)O)C(C)C)C(=O)N[C@@H](CCCCNC(=O)COCCOCCNC(=O)COCCOCCNC(=O)CC[C@H](NC(=O)CCCCCCCCCCCCCCCCC(=O)O)C(=O)O)C(=O)N[C@@](C)(Cc1ccccc1)C(=O)N[C@H](C(=O)N[C@H](C(=O)N[C@@](C)(CCCCN)C(=O)NCC(=O)NCC(N)=O)C(C)C)C(C)C [compound 105] (H-H[Aib]EGS[αMeF]TSDV[αMeS]S[αMeF]LEGEAA[αMeK]E[αMeF]IK([AEEA-AEEA-γGlu-C18 diacid])[αMeF]VV[αMeK]GG-NH2; N-terminus assumed) |
| 6 | 6 | 5.39 | ≥ 25.3 | ≥ 25 | ≥ 25.3 | 544 | 593 | 494 | – | – | – | – | – | – | CC[C@H](C)[C@H](NC(=O)[C@](C)(Cc1ccccc1)NC(=O)[C@H](CCC(=O)O)NC(=O)[C@](C)(CCCCN)NC(=O)[C@H](C)NC(=O)[C@H](C)NC(=O)[C@H](CCC(=O)O)NC(=O)CNC(=O)[C@H](CCC(=O)O)NC(=O)[C@H](CCCCNC(=O)COCCOCCNC(=O)COCCOCCNC(=O)CC[C@H](NC(=O)CCCCCCCCCCCCCCCCC(=O)O)C(=O)O)NC(=O)[C@](C)(Cc1ccccc1)NC(=O)[C@H](CO)NC(=O)[C@](C)(CO)NC(=O)[C@@H](NC(=O)[C@H](CC(=O)O)NC(=O)[C@H](CO)NC(=O)[C@@H](NC(=O)[C@](C)(Cc1ccccc1)NC(=O)[C@H](CO)NC(=O)CNC(=O)[C@H](CCC(=O)O)NC(=O)C(C)(C)NC(=O)[C@@H](N)Cc1c[nH]cn1)[C@@H](C)O)C(C)C)C(=O)N[C@@H](C)C(=O)N[C@@](C)(Cc1ccccc1)C(=O)N[C@H](C(=O)N[C@H](C(=O)N[C@@](C)(CCCCN)C(=O)NCC(=O)NCC(N)=O)C(C)C)C(C)C [compound 115] (H-H[Aib]EGS[αMeF]TSDV[αMeS]S[αMeF]K([AEEA-AEEA-γGlu-C18 diacid])EGEAA[αMeK]E[αMeF]IA[αMeF]VV[αMeK]GG-NH2) |
| 8 | 6.2 | 4.5 | ≥ 28 | ≥ 28 | ≥ 28 | 462 | 548 | 376 | – | – | – | – | – | – | CCCCCCCCCCCC(=O)NCCOCCOCC(=O)NCCCC[C@H](NC(=O)[C@@H](NC(=O)[C@@H](NC(=O)[C@](C)(Cc1ccccc1)NC(=O)[C@H](C)NC(=O)[C@@H](NC(=O)[C@](C)(Cc1ccccc1)NC(=O)[C@H](CCC(=O)O)NC(=O)[C@](C)(CCCCN)NC(=O)[C@H](C)NC(=O)[C@H](C)NC(=O)[C@H](CCC(=O)O)NC(=O)CNC(=O)[C@H](CCC(=O)O)NC(=O)[C@H](CC(C)C)NC(=O)[C@](C)(Cc1ccccc1)NC(=O)[C@H](CO)NC(=O)[C@](C)(CO)NC(=O)[C@@H](NC(=O)[C@H](CC(=O)O)NC(=O)[C@H](CO)NC(=O)[C@@H](NC(=O)[C@](C)(Cc1ccccc1)NC(=O)[C@H](CO)NC(=O)CNC(=O)[C@H](CCC(=O)O)NC(=O)C(C)(C)NC(=O)[C@@H](N)Cc1c[nH]cn1)[C@@H](C)O)C(C)C)[C@@H](C)CC)C(C)C)C(C)C)C(=O)NCC(=O)NCC(N)=O [compound 170] |
| – | – | – | – | – | – | 1460 | 787 | 2130 | 18.3 | 29 | 7.5 | ≥ 25 | ≥ 25 | ≥ 25 | CC[C@H](C)[C@H](NC(=O)[C@](C)(Cc1ccccc1)NC(=O)[C@H](CCC(=O)O)NC(=O)[C@](C)(CCCCN)NC(=O)[C@H](C)NC(=O)[C@H](C)NC(=O)[C@H](CCC(=O)O)NC(=O)CNC(=O)[C@H](CCC(=O)O)NC(=O)[C@H](CC(C)C)NC(=O)[C@](C)(Cc1ccccc1)NC(=O)[C@H](CO)NC(=O)[C@](C)(CO)NC(=O)[C@@H](NC(=O)[C@H](CC(=O)O)NC(=O)[C@H](CO)NC(=O)[C@@H](NC(=O)[C@](C)(Cc1ccccc1)NC(=O)[C@H](CO)NC(=O)CNC(=O)[C@H](CCC(=O)O)NC(=O)C(C)(C)NC(=O)[C@@H](N)Cc1c[nH]cn1)[C@@H](C)O)C(C)C)C(=O)N[C@@H](C)C(=O)N[C@@](C)(Cc1ccccc1)C(=O)N[C@H](C(=O)N[C@H](C(=O)N[C@@H](CCCCNC(=O)COCCOCCNC(=O)COCCOCCNC(=O)COCCOCCNC(=O)CCCCCCCCCCCCCCCCC(=O)O)C(=O)NCC(=O)NCC(N)=O)C(C)C)C(C)C [compound 199] |
